Experimental data reported in ChEMBL document CHEMBL1806393, “Cytotoxic oxasqualenoids from the red alga Laurencia viridis” (Eur J Med Chem, 2011).
Each block holds one molecule with its values, some of them ahead of it. The source made the active and inactive calls. The rule behind the calls is not given here.

Legend:
Jurkat [1] = assay: Cytotoxicity against human Jurkat cells assessed as inhibition of cell proliferation after 72 hrs by XTT assay; type: functional, cell-based
[2] = Cytotoxicity against human MM144 cells assessed as inhibition of cell proliferation after 72 hrs by XTT assay; type: functional, cell-based
HeLa = assay: Cytotoxicity against human HeLa cells assessed as inhibition of cell proliferation after 72 hrs by XTT assay; type: functional, cell-based
[3] = Cytotoxicity against human CADO-ES1 cells assessed as inhibition of cell proliferation after 72 hrs by XTT assay; type: functional, cell-based; details: CADO-ES1, 72 h
[4] = Inhibition of […] using p-nitrophenyl phosphate as substrate at <100 uM by UV/visible absorption spectroscopic analysis
[5] = Solubility of the compound in water; type: physicochemical; details: buffer
Jurkat [6] = assay: Induction of apoptosis in human Jurkat cells assessed as DNA breakdown in sub-G1 phase at 20 uM after 24 to 72 hrs using propidium iodide staining by flow cytometry; type: functional, cell-based
Jurkat [7] = assay: Cell cycle arrest in human Jurkat cells assessed as increase in apoptotic cells at sub-G1 phase at 20 uM after 72 hrs using propidium iodide staining by flow cytometry; type: functional, cell-based

SMILES: CC(C)(O)[C@H]1CC[C@](C)([C@@H](O)CC[C@@](O)(CO)C(=O)[C@H](O)C[C@H]2O[C@@H]([C@]3(C)CC[C@@H](Br)C(C)(C)O3)CC[C@]2(C)O)O1
IC50 (Jurkat [1]): 7.2 µM | IC50 [2]: 15.5 µM | IC50 (HeLa): 26 µM | IC50 [3]: 3.1 µM | inhibition [4]: inactive | solubility [5]: Insoluble

SMILES: C=C(CC[C@H](OS(=O)(=O)O)[C@@]1(C)CC[C@H](C(C)(C)O)O1)[C@H]1CC[C@H]2O[C@@H]([C@]3(C)CC[C@@H](Br)C(C)(C)O3)CC[C@]2(C)O1
IC50 (Jurkat [1]): 12 µM | IC50 [2]: 18 µM | IC50 (HeLa): 33 µM | IC50 [3]: 27 µM | Activity (Jurkat [6]): Active | Activity (Jurkat [7]): Active | inhibition [4]: inactive | solubility [5]: Insoluble

SMILES: CC(C)(O)[C@H]1CC[C@](C)([C@@H](O)CC[C@@H](CO)C2=CC[C@H]3O[C@@H]([C@]4(C)CC[C@@H](Br)C(C)(C)O4)CC[C@]3(C)O2)O1
IC50 (Jurkat [1]): 7.55 µM | IC50 [2]: 7.3 µM | IC50 (HeLa): 23 µM | IC50 [3]: 16.5 µM | inhibition [4]: inactive | solubility [5]: Insoluble

SMILES: C=C(CC[C@H](O)[C@@]1(C)CC[C@H](C(C)(C)O)O1)[C@H]1CC[C@H]2O[C@@H]([C@]3(C)CC[C@@H](Br)C(C)(C)O3)CC[C@]2(C)O1 [DEHYDROTHYRSIFEROL]
IC50 (Jurkat [1]): 13.5 µM | IC50 [2]: 21.5 µM | IC50 (HeLa): 34.5 µM | IC50 [3]: 12 µM | Activity (Jurkat [6]): Active | Activity (Jurkat [7]): Active | inhibition [4]: inactive | solubility [5]: Insoluble

SMILES: CC(C)(O)[C@H]1CC[C@](C)([C@@H](O)CCC(O)(CO)[C@H]2CC[C@H]3O[C@@H]([C@]4(C)CC[C@@H](Br)C(C)(C)O4)CC[C@]3(C)O2)O1 (stereo partly drawn)
IC50 (Jurkat [1]): 4.6 µM | IC50 [2]: 21 µM | IC50 (HeLa): 24 µM | IC50 [3]: 18 µM | inhibition [4]: inactive | solubility [5]: Insoluble

SMILES: CC(C)(O)[C@H]1CC[C@](C)([C@H](CCC(O)(CO)[C@H]2CC[C@H]3O[C@@H]([C@]4(C)CC[C@@H](Br)C(C)(C)O4)CC[C@]3(C)O2)OS(=O)(=O)O)O1 (stereo partly drawn)
IC50 (Jurkat [1]): 6.9 µM | IC50 [2]: 13.5 µM | IC50 (HeLa): 27.5 µM | IC50 [3]: 11 µM | inhibition [4]: inactive | solubility [5]: Insoluble

Now from value to molecule, other results behind:

inhibition [4]: inactive | solubility [5]: Insoluble
SMILES: CC(C)(O)[C@H]1CC[C@](C)([C@@H](O)CC[C@@](O)(CO)C(=O)CC[C@H]2O[C@@H]([C@]3(C)CC[C@@H](Br)C(C)(C)O3)CC[C@]2(C)O)O1 [PRETHYRSENOL A]
IC50 (Jurkat [1]): 8.15 µM | IC50 [2]: 10.2 µM | IC50 (HeLa): 29 µM | IC50 [3]: 14.5 µM

inhibition [4]: inactive | solubility [5]: Insoluble
SMILES: CC(C)(O)[C@H]1CC[C@](C)([C@H](CCC(O)(COS(=O)(=O)O)[C@H]2CC[C@H]3O[C@@H]([C@]4(C)CC[C@@H](Br)C(C)(C)O4)CC[C@]3(C)O2)OS(=O)(=O)O)O1 (stereo partly drawn)
IC50 (Jurkat [1]): 8.6 µM | IC50 [2]: 31.5 µM | IC50 (HeLa): 35.5 µM | IC50 [3]: 17 µM

inhibition [4]: inactive
SMILES: CC(C)(O)[C@H]1CC[C@](C)([C@@H](O)CC[C@@](O)(CO)C2=CC[C@H]3O[C@@H]([C@]4(C)CC[C@@H](Br)C(C)(C)O4)CC[C@]3(C)O2)O1
